Measured values published in PubChem BioAssay AID791 (The Scripps Research Institute Molecular Screening Center, 2007).
Activity calls are given as the source filed them.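 How the source made its calls: active means IC50 at or below 10 µM; inactive means IC50 above 10 µM.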

Molecular target: Rho-associated protein kinase 2 (Homo sapiens) (UniProt O75116)
Assay: ROCK2 inhibitor IC50 determination, dose response, biochemical, Kinase-Glo luminescence, S6 peptide, 384-well (AID 791)
Conditions: recombinant ROCK2, S6 peptide

Rho-associated protein kinase 2 (Homo sapiens), sequence (O75116 whole entry, looked up): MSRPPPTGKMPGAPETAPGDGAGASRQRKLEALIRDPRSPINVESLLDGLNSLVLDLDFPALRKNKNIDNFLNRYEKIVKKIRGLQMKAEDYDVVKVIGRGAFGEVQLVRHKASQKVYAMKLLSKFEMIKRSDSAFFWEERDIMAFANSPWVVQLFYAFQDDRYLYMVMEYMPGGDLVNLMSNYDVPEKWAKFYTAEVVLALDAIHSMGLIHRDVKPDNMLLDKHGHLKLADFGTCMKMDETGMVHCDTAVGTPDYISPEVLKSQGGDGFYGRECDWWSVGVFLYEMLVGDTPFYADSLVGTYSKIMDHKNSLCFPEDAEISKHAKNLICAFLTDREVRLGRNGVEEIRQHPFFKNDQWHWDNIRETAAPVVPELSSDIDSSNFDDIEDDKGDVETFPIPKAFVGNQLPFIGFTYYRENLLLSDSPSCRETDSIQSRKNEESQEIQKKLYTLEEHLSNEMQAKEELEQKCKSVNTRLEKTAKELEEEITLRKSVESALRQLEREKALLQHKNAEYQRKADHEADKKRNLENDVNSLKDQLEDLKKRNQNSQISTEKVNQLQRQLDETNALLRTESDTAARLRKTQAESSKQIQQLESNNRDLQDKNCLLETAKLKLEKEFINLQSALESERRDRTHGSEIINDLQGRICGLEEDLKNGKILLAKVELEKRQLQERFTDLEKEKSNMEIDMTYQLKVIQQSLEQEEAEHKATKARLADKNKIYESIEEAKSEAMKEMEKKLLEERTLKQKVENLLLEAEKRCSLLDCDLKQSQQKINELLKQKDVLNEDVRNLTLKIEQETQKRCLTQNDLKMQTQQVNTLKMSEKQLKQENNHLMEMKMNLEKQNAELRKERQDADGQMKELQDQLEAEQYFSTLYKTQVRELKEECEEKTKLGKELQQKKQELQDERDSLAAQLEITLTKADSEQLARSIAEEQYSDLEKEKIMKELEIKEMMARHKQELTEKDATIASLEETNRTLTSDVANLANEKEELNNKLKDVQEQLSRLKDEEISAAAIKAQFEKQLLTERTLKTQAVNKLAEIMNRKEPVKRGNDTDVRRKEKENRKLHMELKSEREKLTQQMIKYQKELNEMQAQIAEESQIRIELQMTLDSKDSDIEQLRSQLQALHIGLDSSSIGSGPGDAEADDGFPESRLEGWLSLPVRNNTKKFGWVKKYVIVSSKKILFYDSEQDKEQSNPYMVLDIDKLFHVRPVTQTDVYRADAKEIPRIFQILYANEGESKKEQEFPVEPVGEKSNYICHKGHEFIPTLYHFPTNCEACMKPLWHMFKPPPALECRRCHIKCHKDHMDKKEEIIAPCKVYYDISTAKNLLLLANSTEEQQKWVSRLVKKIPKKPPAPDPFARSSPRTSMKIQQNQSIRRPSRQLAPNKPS

| IC50 | Structure (SMILES) |
| --- | --- |
| 186 nM | O=C(C(O)c1ccc(Cl)cc1)N1CCN(c2ccc3[nH]ncc3c2)CC1 (stereo not drawn) |
| 7.86 nM | O=C(C(O)c1ccc(Br)cc1)N1CCN(c2ccc3[nH]ncc3c2)CC1 (stereo not drawn) |
| 379 nM | N[C@H](Cc1ccccc1)C(=O)N1CCN(c2ccc3[nH]ncc3c2)CC1 |
| 8.87 nM | O=C(C(O)c1ccc(Br)cc1)N1CCC(Nc2ccc3[nH]ncc3c2)CC1 (stereo not drawn) |
| 468 nM | N[C@@H](Cc1ccccc1)C(=O)N1CCC(Nc2ccc3[nH]ncc3c2)CC1 |
| > 10000 nM (inactive) | C[C@H](O)C(=O)N1CCC(Nc2ccc3[nH]ncc3c2)CC1 |
| 350 nM | O=C([C@H](O)c1cccc(Cl)c1)N1CCC(Nc2ccc3[nH]ncc3c2)CC1 |
| 5320 nM | O=C([C@@H]1Cc2ccccc2CN1)N1CCN(c2ccc3[nH]ncc3c2)CC1 |
| 3910 nM | CC(C)[C@@H](O)C(=O)N1CCN(c2ccc3[nH]ncc3c2)CC1 |
| 148 nM | NC(C(=O)N1CCC(Nc2ccc3[nH]ncc3c2)CC1)c1cccc(Cl)c1 (stereo not drawn) |
| 5740 nM | C[C@H](N)C(=O)N1CCC(Nc2ccc3[nH]ncc3c2)CC1 |
| 188 nM | NC(C(=O)N1CCN(c2ccc3[nH]ncc3c2)CC1)c1ccc(Cl)cc1 (stereo not drawn) |
| 1050 nM | O=C([C@H](O)c1cccc(Cl)c1)N1CCN(c2ccc3[nH]ncc3c2)CC1 |
| 1.26 nM | NC(C(=O)N1CCC(Nc2ccc3[nH]ncc3c2)CC1)c1ccc(Br)cc1 (stereo not drawn) |
| 774 nM | O=C([C@H](O)c1ccccc1)N1CCC(Nc2ccc3[nH]ncc3c2)CC1 |
| 1400 nM | N[C@@H](C(=O)N1CCN(c2ccc3[nH]ncc3c2)CC1)c1ccccc1 |
| > 10600 nM (inactive) | C[C@@H](N)C(=O)N1CCN(c2ccc3[nH]ncc3c2)CC1 |
| 8.97 nM | NC(C(=O)N1CCN(c2ccc3[nH]ncc3c2)CC1)c1ccc(Br)cc1 (stereo not drawn) |
| 835 nM | N[C@H](C(=O)N1CCC(Nc2ccc3[nH]ncc3c2)CC1)c1ccccc1 |
| 1200 nM | O=C([C@H](O)c1ccccc1Cl)N1CCN(c2ccc3[nH]ncc3c2)CC1 |
| 1700 nM | O=C([C@@H](O)c1ccccc1Cl)N1CCC(Nc2ccc3[nH]ncc3c2)CC1 |
| 756 nM | NC(C(=O)N1CCN(c2ccc3[nH]ncc3c2)CC1)c1cccc(Cl)c1 (stereo not drawn) |
| 855 nM | O=C([C@H](O)c1ccccc1)N1CCN(c2ccc3[nH]ncc3c2)CC1 |
